Active and inactive are the calls of the source. The rule behind the calls is not given here.
How the values were obtained:
BT-483 [1] = test: Cytotoxicity against human BT-483 cells after 24 hrs by MTT assay; type: functional, cell-based; conditions: BT-483, 24 h
BT-483 [2] = test: Induction of apoptosis in human BT-483 cells assessed as early apoptotic cells at 5 uM by Annexin V-FITC/propidium iodide staining based flow cytometry (reference value: 2.01%); type: functional
BT-483 [3] = test: Induction of apoptosis in human BT-483 cells assessed as late apoptotic cells at 5 uM by Annexin V-FITC/propidium iodide staining based flow cytometry (reference value: 0.36%); type: functional
BT-483 [4] = test: Induction of apoptosis in human BT-483 cells by Annexin V-FITC/propidium iodide staining based flow cytometry; type: functional, cell-based
BT-474 = test: Cytotoxicity against human BT474 cells after 24 hrs by MTT assay; type: functional, cell-based
MDA-MB-231 = test: Cytotoxicity against human MDA-MB-231 cells after 24 hrs by MTT assay; type: functional, cell-based
MDA-MB-468 = test: Cytotoxicity against human MDA-MB-468 cells after 24 hrs by MTT assay; type: functional, cell-based
BT-483 [5] = test: Upregulation of Bax protein expression in human BT-483 cells at 5 to 10 uM by Western blot analysis; type: functional, cell-based
[6] = system: Tyrosine-protein kinase ABL1 (Homo sapiens), P00519 [T315I]; test: Inhibition of human phosphorylated ABL1 T315I mutant (S229 to K512 residues) expressed in mammalian expression system assessed as residual activity at 1 uM by Kinomescan method relative to control
[7] = target: Atypical kinase COQ8A, mitochondrial (Homo sapiens) (UniProt Q8NI60); test: Inhibition of wild-type human […] ADCK3 (M280 to Q647 residues) expressed in bacterial expression system assessed as residual activity at 1 uM by Kinomescan method relative to control
[8] = target: ALK tyrosine kinase receptor (Homo sapiens) (UniProt Q9UM73); test: Inhibition of wild-type human partial length ALK (I1088 to E1409 residues) expressed in mammalian expression system assessed as residual activity at 1 uM by Kinomescan method relative to control
[9] = target: Tyrosine-protein kinase receptor UFO (Homo sapiens) (UniProt P30530); test: Inhibition of wild-type human partial length AXL (R497 to Y821 residues) expressed in bacterial expression system assessed as residual activity at 1 uM by Kinomescan method relative to control
[10] = target: Tyrosine-protein kinase BTK (Homo sapiens) (UniProt Q06187); test: Inhibition of wild-type human full length BTK (M1 to S659 residues) expressed in mammalian expression system assessed as residual activity at 1 uM by Kinomescan method relative to control
[11] = target: Cyclin-dependent kinase 3 (Homo sapiens) (UniProt Q00526); test: Inhibition of wild-type human full length CDK3 (M1 to H305 residues) expressed in bacterial expression system assessed as residual activity at 1 uM by Kinomescan method relative to control
[12] = target: Cyclin-dependent kinase 9 (Homo sapiens) (UniProt P50750); test: Inhibition of wild-type human full length CDK9 (M1 to F372 residues) expressed in bacterial expression system assessed as residual activity at 1 uM by Kinomescan method relative to control
[13] = target: Dual specificity tyrosine-phosphorylation-regulated kinase 1B (Homo sapiens) (UniProt Q9Y463); test: Inhibition of wild-type human full length DYRK1B (M1 to S629 residues) expressed in bacterial expression system assessed as residual activity at 1 uM by Kinomescan method relative to control
[14] = target: Glycogen synthase kinase-3 beta (Homo sapiens) (UniProt P49841); test: Inhibition of wild-type human full length GSK3B (M1 to T433 residues) expressed in mammalian expression system assessed as residual activity at 1 uM by Kinomescan method relative to control
[15] = target: Inhibitor of nuclear factor kappa-B kinase subunit beta (Homo sapiens) (UniProt O14920); test: Inhibition of wild-type human full length IKK-beta (M1 to S756 residues) expressed in mammalian expression system assessed as residual activity at 1 uM by Kinomescan method relative to control
[16] = target: Mitogen-activated protein kinase 9 (Homo sapiens) (UniProt P45984); test: Inhibition of wild-type human full length JNK2 (M1 to Q382 residues) expressed in mammalian expression system assessed as residual activity at 1 uM by Kinomescan method relative to control
[17] = target: Mast/stem cell growth factor receptor Kit (Homo sapiens) (UniProt P10721); test: Inhibition of wild-type human partial length KIT (I571 to D952 residues) expressed in bacterial expression system assessed as residual activity at 1 uM by Kinomescan method relative to control
[18] = system: Mast/stem cell growth factor receptor Kit (Homo sapiens), P10721 [D816V]; test: Inhibition of human partial length KIT D816V mutant (I571 to D952 residues) expressed in bacterial expression system assessed as residual activity at 1 uM by Kinomescan method relative to control
[19] = target: Mitogen-activated protein kinase kinase kinase 4 (Homo sapiens) (UniProt Q9Y6R4); test: Inhibition of wild-type human partial length MAP3K4 (G1319 to E1608 residues) expressed in bacterial expression system assessed as residual activity at 1 uM by Kinomescan method relative to control
[20] = target: Cyclin-dependent kinase 16 (Homo sapiens) (UniProt Q00536); test: Inhibition of wild-type human partial length PCTK1 (G160 to A474 residues) expressed in mammalian expression system assessed as residual activity at 1 uM by Kinomescan method relative to control
[21] = target: Protein kinase C epsilon type (Homo sapiens) (UniProt Q02156); test: Inhibition of wild-type human partial length PRKCE (A378 to P737 residues) expressed in mammalian expression system assessed as residual activity at 1 uM by Kinomescan method relative to control
[22] = target: RAF proto-oncogene serine/threonine-protein kinase (Homo sapiens) (UniProt P04049); test: Inhibition of wild-type human partial length RAF1 (I330 to T640 residues) expressed in bacterial expression system assessed as residual activity at 1 uM by Kinomescan method relative to control
[23] = target: Proto-oncogene tyrosine-protein kinase receptor Ret (Homo sapiens) (UniProt P07949); test: Inhibition of wild-type human partial length RET (E713 to D1014 residues) expressed in bacterial expression system assessed as residual activity at 1 uM by Kinomescan method relative to control
[24] = target: Serine/threonine-protein kinase RIO2 (Homo sapiens) (UniProt Q9BVS4); test: Inhibition of wild-type human partial length RIOK2 (M1 to D313 residues) expressed in mammalian expression system assessed as residual activity at 1 uM by Kinomescan method relative to control
[25] = target: High affinity nerve growth factor receptor (Homo sapiens) (UniProt P04629); test: Inhibition of wild-type human partial length TRKA (G475 to G790 residues) expressed in mammalian expression system assessed as residual activity at 1 uM by Kinomescan method relative to control
[26] = target: Vascular endothelial growth factor receptor 2 (Homo sapiens) (UniProt P35968); test: Inhibition of wild-type human partial length VEGFR2 (R787 to P1253 residues) expressed in mammalian expression system assessed as residual activity at 1 uM by Kinomescan method relative to control
Sequence of Vascular endothelial growth factor receptor 2 (Homo sapiens) (P35968 whole entry, the tested form may be a part): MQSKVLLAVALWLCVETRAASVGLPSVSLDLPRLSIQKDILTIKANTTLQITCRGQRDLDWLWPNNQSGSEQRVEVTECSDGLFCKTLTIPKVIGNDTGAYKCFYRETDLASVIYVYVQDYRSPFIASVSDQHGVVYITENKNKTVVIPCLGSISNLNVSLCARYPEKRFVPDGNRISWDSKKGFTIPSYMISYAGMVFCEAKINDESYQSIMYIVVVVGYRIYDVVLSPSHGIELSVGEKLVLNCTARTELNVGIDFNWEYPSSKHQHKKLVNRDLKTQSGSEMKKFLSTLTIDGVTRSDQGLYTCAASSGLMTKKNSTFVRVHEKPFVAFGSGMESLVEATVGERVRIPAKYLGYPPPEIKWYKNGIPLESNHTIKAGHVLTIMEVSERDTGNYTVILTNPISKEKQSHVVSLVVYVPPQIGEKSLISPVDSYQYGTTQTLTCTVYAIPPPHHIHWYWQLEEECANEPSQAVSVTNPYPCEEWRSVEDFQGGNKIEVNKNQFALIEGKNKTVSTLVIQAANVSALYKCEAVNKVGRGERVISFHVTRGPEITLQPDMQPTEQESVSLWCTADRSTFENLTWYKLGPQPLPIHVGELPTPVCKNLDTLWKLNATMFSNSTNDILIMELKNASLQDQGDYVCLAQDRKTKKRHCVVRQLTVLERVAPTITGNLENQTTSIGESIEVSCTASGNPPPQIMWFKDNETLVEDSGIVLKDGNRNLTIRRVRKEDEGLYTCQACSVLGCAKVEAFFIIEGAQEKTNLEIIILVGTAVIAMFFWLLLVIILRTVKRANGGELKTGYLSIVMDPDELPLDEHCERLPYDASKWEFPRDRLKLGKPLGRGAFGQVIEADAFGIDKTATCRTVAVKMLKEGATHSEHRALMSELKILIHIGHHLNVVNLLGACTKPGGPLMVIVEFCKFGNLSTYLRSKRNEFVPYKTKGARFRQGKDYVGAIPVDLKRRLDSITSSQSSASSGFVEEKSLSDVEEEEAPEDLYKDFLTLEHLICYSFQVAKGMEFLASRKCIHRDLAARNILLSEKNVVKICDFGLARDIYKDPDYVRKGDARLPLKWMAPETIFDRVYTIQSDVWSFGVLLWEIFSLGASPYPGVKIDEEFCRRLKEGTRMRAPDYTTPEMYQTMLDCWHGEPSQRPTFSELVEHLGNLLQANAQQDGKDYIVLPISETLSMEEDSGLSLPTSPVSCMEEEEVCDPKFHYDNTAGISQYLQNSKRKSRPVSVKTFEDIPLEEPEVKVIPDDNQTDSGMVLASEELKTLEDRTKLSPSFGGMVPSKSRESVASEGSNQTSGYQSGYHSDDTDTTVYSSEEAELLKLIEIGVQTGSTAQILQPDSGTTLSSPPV

Sequence of Mitogen-activated protein kinase 9 (Homo sapiens) (P45984 whole entry, looked up, the tested form may be a part): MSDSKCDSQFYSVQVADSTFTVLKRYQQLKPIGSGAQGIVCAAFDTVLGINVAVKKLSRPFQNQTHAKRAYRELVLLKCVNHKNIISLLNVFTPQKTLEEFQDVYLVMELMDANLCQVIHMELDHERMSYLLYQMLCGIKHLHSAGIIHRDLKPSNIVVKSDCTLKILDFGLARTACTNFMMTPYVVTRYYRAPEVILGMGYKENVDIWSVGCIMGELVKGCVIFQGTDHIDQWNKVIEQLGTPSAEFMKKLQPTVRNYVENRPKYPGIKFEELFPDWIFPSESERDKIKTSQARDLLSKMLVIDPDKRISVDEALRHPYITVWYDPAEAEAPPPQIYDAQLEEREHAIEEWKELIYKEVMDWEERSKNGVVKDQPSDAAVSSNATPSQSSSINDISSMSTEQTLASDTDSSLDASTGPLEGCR
Sequence of Mast/stem cell growth factor receptor Kit (Homo sapiens) (P10721 whole entry, the tested form may be a part): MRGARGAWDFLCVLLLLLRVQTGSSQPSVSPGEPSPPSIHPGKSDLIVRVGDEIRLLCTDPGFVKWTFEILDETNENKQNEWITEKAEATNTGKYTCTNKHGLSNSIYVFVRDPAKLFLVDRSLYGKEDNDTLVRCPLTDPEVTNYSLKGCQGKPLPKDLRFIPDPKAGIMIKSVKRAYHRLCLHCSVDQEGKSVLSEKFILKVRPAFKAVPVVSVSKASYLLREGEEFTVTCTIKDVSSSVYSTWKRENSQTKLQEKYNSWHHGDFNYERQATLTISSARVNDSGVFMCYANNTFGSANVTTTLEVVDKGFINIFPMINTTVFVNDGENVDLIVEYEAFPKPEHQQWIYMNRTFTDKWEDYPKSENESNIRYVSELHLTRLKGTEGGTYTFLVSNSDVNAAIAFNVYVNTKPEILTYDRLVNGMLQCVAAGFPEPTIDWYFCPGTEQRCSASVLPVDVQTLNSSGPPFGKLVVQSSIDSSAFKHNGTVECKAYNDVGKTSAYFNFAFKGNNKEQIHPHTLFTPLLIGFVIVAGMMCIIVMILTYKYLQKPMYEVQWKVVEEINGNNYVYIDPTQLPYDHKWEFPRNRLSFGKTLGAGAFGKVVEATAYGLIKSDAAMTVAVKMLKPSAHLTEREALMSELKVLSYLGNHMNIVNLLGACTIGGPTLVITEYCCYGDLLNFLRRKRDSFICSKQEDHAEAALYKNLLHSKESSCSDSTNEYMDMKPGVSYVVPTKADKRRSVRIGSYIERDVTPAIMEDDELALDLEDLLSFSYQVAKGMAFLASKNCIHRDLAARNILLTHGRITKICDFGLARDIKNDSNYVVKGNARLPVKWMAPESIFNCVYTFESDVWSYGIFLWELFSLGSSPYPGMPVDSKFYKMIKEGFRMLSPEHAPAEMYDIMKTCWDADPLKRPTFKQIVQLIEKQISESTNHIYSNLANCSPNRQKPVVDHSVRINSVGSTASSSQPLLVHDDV
Sequence of Atypical kinase COQ8A, mitochondrial (Homo sapiens) (Q8NI60 163-647 limits assumed): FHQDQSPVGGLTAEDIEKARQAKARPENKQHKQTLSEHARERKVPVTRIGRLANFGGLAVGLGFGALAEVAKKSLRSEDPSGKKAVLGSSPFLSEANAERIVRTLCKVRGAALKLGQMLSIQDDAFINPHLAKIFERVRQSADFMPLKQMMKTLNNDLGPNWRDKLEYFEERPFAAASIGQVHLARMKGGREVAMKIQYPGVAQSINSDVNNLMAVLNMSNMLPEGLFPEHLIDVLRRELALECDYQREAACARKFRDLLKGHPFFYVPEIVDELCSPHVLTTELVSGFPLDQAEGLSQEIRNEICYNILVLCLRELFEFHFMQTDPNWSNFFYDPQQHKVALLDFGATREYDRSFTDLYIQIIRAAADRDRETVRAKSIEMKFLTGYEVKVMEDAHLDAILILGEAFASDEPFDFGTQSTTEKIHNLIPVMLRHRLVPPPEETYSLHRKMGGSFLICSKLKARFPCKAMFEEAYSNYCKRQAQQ
Sequence of Glycogen synthase kinase-3 beta (Homo sapiens) (P49841 whole entry, looked up, the tested form may be a part): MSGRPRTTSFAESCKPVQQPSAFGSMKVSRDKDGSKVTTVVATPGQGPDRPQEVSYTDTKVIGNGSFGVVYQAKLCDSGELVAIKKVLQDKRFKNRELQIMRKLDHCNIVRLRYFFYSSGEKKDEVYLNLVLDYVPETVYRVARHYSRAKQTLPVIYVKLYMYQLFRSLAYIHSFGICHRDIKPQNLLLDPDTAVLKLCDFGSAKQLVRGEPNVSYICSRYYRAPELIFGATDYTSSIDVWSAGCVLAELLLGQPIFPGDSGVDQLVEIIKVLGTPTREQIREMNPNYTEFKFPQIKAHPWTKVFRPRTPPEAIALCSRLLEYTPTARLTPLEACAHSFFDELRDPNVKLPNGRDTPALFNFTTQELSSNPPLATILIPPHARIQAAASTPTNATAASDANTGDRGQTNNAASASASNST
Sequence of Cyclin-dependent kinase 3 (Homo sapiens) (Q00526 whole entry, looked up, the tested form may be a part): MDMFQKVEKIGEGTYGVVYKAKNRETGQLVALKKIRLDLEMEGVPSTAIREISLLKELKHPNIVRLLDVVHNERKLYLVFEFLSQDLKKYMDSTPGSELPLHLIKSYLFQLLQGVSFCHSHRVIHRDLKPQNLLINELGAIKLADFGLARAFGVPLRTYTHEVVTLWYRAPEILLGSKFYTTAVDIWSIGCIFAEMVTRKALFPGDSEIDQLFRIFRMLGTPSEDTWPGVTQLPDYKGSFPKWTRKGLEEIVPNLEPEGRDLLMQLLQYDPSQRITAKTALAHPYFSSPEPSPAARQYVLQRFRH
Sequence of Protein kinase C epsilon type (Homo sapiens) (Q02156 whole entry, the tested form may be a part): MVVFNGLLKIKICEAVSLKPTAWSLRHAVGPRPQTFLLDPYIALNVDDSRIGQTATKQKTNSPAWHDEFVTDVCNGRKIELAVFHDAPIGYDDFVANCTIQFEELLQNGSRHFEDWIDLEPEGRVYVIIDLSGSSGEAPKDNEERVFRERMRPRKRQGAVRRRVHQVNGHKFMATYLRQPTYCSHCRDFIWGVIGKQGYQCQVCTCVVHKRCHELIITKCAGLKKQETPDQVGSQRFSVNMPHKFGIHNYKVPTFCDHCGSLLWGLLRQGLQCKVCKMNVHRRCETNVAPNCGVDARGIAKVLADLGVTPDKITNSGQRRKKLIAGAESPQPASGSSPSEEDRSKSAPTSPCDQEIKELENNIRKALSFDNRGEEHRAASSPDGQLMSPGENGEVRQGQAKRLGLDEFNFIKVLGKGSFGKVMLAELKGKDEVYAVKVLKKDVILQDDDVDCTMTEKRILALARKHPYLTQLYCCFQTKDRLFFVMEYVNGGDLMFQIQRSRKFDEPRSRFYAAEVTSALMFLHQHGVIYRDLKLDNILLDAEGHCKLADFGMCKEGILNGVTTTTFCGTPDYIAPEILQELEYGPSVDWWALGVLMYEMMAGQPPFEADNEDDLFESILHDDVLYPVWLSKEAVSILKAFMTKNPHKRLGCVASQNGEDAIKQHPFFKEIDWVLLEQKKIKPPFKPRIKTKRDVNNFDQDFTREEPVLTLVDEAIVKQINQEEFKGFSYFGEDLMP
Sequence of Mast/stem cell growth factor receptor Kit (Homo sapiens), P10721 [D816V] (P10721 whole entry D816V, the tested form may be a part): as the sequence (P10721 whole entry, the tested form may be a part) above, with D816V counted along it

With CCNc1cc(-c2ccc(NC(=O)Nc3cccc(Cl)c3)cc2C(F)(F)F)ccn1 the IC50 (BT-483 [1]) was 13.3 µM, the Activity (BT-483 [2]) was 8.64% and the Activity (BT-483 [3]) was 6.67%. For the same compound, the Activity (BT-483 [4]) was “Dose-dependent effect”, the Activity (BT-474) was “Active” and the Activity (MDA-MB-231) was “Active”. The Activity (MDA-MB-468) was “Active”, the Activity (BT-483 [5]) was “Active” and the Activity [6] was 96%. It also gave an Activity [7] of 94%, an Activity [8] of 88% and an Activity [9] of 99%. It also gave an Activity [10] of 83%, an Activity [11] of 87% and an Activity [12] of 91%. For the same compound, the Activity [13] was 93%, the Activity [14] was 80% and the Activity [15] was 92%. The Activity [16] was 93%, the Activity [17] was 76% and the Activity [18] was 84%. The Activity [19] was 85%, the Activity [20] was 66% and the Activity [21] was 67%. The Activity [22] was 64%, the Activity [23] was 64% and the Activity [24] was 67%. For the same compound, the Activity [25] was 84% and the Activity [26] was 60%.
